Results reported in ChEMBL document CHEMBL4229455, “Synthesis and anticancer activity of novel bisindolylhydroxymaleimide derivatives with potent GSK-3 kinase inhibition” (Bioorg Med Chem, 2018).

Assays:
Type in all cases: functional
CCRF-CEM [1] = assay: Cytotoxicity against human CCRF-CEM cells assessed as cell growth at 0.01 uM after 48 hrs by SRB assay relative to control; settings: read-out: Activity
COLO 205 = assay: Cytotoxicity against human COLO205 cells assessed as cell growth at 0.01 uM after 48 hrs by SRB assay relative to control; settings: COLO 205, 48 h, read-out: Activity
SF-295 = assay: Cytotoxicity against human SF295 cells assessed as cell growth at 0.01 uM after 48 hrs by SRB assay relative to control; settings: SF-295, 48 h, read-out: Activity
SK-OV-3 = assay: Cytotoxicity against human SKOV3 cells assessed as cell growth at 0.01 uM after 48 hrs by SRB assay relative to control; settings: SK-OV-3, 48 h, read-out: Activity
786-0 [2] = assay: Cytotoxicity against human 786-O cells assessed as cell growth at 0.01 uM after 48 hrs by SRB assay relative to control; settings: 786-0, 48 h, read-out: Activity
PC-3 [3] = assay: Cytotoxicity against human PC3 cells assessed as cell growth at 0.01 uM after 48 hrs by SRB assay relative to control; settings: PC-3, 48 h, read-out: Activity
HCT-15 = assay: Cytotoxicity against human HCT15 cells assessed as cell growth at 0.1 uM after 48 hrs by SRB assay relative to control; settings: HCT-15, 48 h, read-out: Activity
UACC-62 = assay: Cytotoxicity against human UACC62 cells assessed as cell growth at 0.1 uM after 48 hrs by SRB assay relative to control; settings: UACC-62, 48 h, read-out: Activity
OVCAR-8 = assay: Cytotoxicity against human OVCAR8 cells assessed as cell growth at 0.1 uM after 48 hrs by SRB assay relative to control; settings: OVCAR-8, 48 h, read-out: Activity
UO-31 = assay: Cytotoxicity against human UO31 cells assessed as cell growth at 0.1 uM after 48 hrs by SRB assay relative to control; settings: UO-31, 48 h, read-out: Activity
PC-3 [4] = assay: Cytotoxicity against human PC3 cells assessed as cell growth at 0.1 uM after 48 hrs by SRB assay relative to control; settings: PC-3, 48 h, read-out: Activity
MDA-MB-468 = assay: Cytotoxicity against human MDA-MB-468 cells assessed as cell growth at 0.1 uM after 48 hrs by SRB assay relative to control; settings: MDA-MB-468, 48 h, read-out: Activity
K562 = assay: Cytotoxicity against human K562 cells assessed as cell growth at 1 uM after 48 hrs by SRB assay relative to control; settings: K562, 48 h, read-out: Activity
HOP-62 = assay: Cytotoxicity against human HOP62 cells assessed as cell growth at 1 uM after 48 hrs by SRB assay relative to control; settings: HOP-62, 48 h, read-out: Activity
NCI-H226 [5] = assay: Cytotoxicity against human NCI-H226 cells assessed as cell growth at 1 uM after 48 hrs by SRB assay relative to control; settings: NCI-H226, 48 h, read-out: Activity
SW-620 = assay: Cytotoxicity against human SW620 cells assessed as cell growth at 1 uM after 48 hrs by SRB assay relative to control; settings: SW-620, 48 h, read-out: Activity
SF-539 = assay: Cytotoxicity against human SF539 cells assessed as cell growth at 1 uM after 48 hrs by SRB assay relative to control; settings: SF-539, 48 h, read-out: Activity
786-0 [6] = assay: Cytotoxicity against human 786-O cells assessed as cell growth at 1 uM after 48 hrs by SRB assay relative to control; settings: 786-0, 48 h, read-out: Activity
ACHN = assay: Cytotoxicity against human ACHN cells assessed as cell growth at 1 uM after 48 hrs by SRB assay relative to control; settings: read-out: Activity
RXF 393 = assay: Cytotoxicity against human RXF393 cells assessed as cell growth at 1 uM after 48 hrs by SRB assay relative to control; settings: RXF 393, 48 h, read-out: Activity
TK-10 [7] = assay: Cytotoxicity against human TK10 cells assessed as cell growth at 1 uM after 48 hrs by SRB assay relative to control; settings: TK-10, 48 h, read-out: Activity
MCF7 [8] = assay: Cytotoxicity against human MCF7 cells assessed as cell growth at 1 uM after 48 hrs by SRB assay relative to control; settings: MCF7, 48 h, read-out: Activity
MDA-MB-231 = assay: Cytotoxicity against human MDA-MB-231 cells assessed as cell growth at 1 uM after 48 hrs by SRB assay relative to control; settings: MDA-MB-231, 48 h, read-out: Activity
HOP-92 = assay: Cytotoxicity against human HOP92 cells assessed as cell growth at 100 uM after 48 hrs by SRB assay relative to control; settings: HOP-92, 48 h, read-out: Activity
NCI-H226 [9] = assay: Cytotoxicity against human NCI-H226 cells assessed as cell growth at 100 uM after 48 hrs by SRB assay relative to control; settings: NCI-H226, 48 h, read-out: Activity
NCI-H460 = assay: Cytotoxicity against human NCI-H460 cells assessed as cell growth at 100 uM after 48 hrs by SRB assay relative to control; settings: NCI-H460, 48 h, read-out: Activity
TK-10 [10] = assay: Cytotoxicity against human TK10 cells assessed as cell growth at 100 uM after 48 hrs by SRB assay relative to control; settings: TK-10, 48 h, read-out: Activity
MCF7 [11] = assay: Cytotoxicity against human MCF7 cells assessed as cell growth at 100 uM after 48 hrs by SRB assay relative to control; settings: MCF7, 48 h, read-out: Activity
CCRF-CEM [12] = assay: Cytotoxicity against human CCRF-CEM cells after 48 hrs by SRB assay
KM12 = assay: Cytotoxicity against human KM12 cells after 48 hrs by SRB assay; settings: KM12, 48 h
SNB-75 = assay: Cytotoxicity against human SNB75 cells after 48 hrs by SRB assay; settings: SNB-75, 48 h; for CC50: read-out: LC50 (the source's name)
MDA-MB-435 = assay: Cytotoxicity against human MDA-MB-435 cells after 48 hrs by SRB assay; settings: MDA-MB-435, 48 h
SK-MEL-28 = assay: Cytotoxicity against human SK-MEL-28 cells after 48 hrs by SRB assay; settings: SK-MEL-28, 48 h
NCI/ADR-RES = assay: Cytotoxicity against human NCI-ADR-RES cells after 48 hrs by SRB assay; settings: for CC50: read-out: LC50 (the source's name)
SN12C = assay: Cytotoxicity against human SN12C cells after 48 hrs by SRB assay; settings: for CC50: read-out: LC50 (the source's name)
PC-3 [13] = assay: Cytotoxicity against human PC3 cells after 48 hrs by SRB assay; settings: PC-3, 48 h

Structure (SMILES): N#CCCCCCn1cc(C2=C(c3cn(CCCCCC#N)c4ccccc34)C(=O)N(O)C2=O)c2ccccc21
- growth at 0.01 µM (CCRF-CEM [1]): 91%
- growth at 0.01 µM (COLO 205): 99%
- growth at 0.01 µM (SF-295): 98%
- growth at 0.01 µM (SK-OV-3): 98%
- growth at 0.01 µM (786-0 [2]): 103%
- growth at 0.01 µM (PC-3 [3]): 93%
- growth at 0.1 µM (HCT-15): 93%
- growth at 0.1 µM (UACC-62): 94%
- growth at 0.1 µM (OVCAR-8): 99%
- growth at 0.1 µM (UO-31): 66%
- growth at 0.1 µM (PC-3 [4]): 88%
- growth at 0.1 µM (MDA-MB-468): 105%
- growth at 1 µM (K562): 94%
- growth at 1 µM (HOP-62): 83%
- growth at 1 µM (NCI-H226 [5]): 89%
- growth at 1 µM (SW-620): 91%
- growth at 1 µM (SF-539): 93%
- growth at 1 µM (786-0 [6]): 100%
- growth at 1 µM (ACHN): 88%
- growth at 1 µM (RXF 393): 98%
- growth at 1 µM (TK-10 [7]): 107%
- growth at 1 µM (MCF7 [8]): 95%
- growth at 1 µM (MDA-MB-231): 82%
- growth at 100 µM (HOP-92): 11%
- growth at 100 µM (NCI-H226 [9]): -8%
- growth at 100 µM (NCI-H460): -26%
- growth at 100 µM (TK-10 [10]): 12%
- growth at 100 µM (MCF7 [11]): -14%
- GI50 (CCRF-CEM [12]): 2.73 µM
- LC50 (CCRF-CEM [12]): > 100 µM
- TGI (CCRF-CEM [12]): > 100 µM
- GI50 (KM12): 4.78 µM
- LC50 (KM12): > 100 µM
- TGI (KM12): 33.1 µM
- GI50 (SNB-75): 2.84 µM
- TGI (SNB-75): 20 µM
- CC50 (SNB-75): > 100 µM
- GI50 (MDA-MB-435): 2.74 µM
- LC50 (MDA-MB-435): > 100 µM
- TGI (MDA-MB-435): 8.31 µM
- GI50 (SK-MEL-28): 6.07 µM
- LC50 (SK-MEL-28): > 100 µM
- TGI (SK-MEL-28): > 100 µM
- GI50 (NCI/ADR-RES): 20.4 µM
- TGI (NCI/ADR-RES): > 100 µM
- CC50 (NCI/ADR-RES): > 100 µM
- GI50 (SN12C): 8.47 µM
- TGI (SN12C): > 100 µM
- CC50 (SN12C): > 100 µM
- GI50 (PC-3 [13]): 3.92 µM
- LC50 (PC-3 [13]): > 100 µM
- TGI (PC-3 [13]): 74 µM

Structure (SMILES): Cn1cc(C2=C(c3cn(C)c4ncccc34)C(=O)NC2=O)c2ccccc21
- growth at 0.01 µM (CCRF-CEM [1]): 98%
- growth at 0.01 µM (COLO 205): 105%
- growth at 0.01 µM (SF-295): 98%
- growth at 0.01 µM (SK-OV-3): 104%
- growth at 0.01 µM (786-0 [2]): 99%
- growth at 0.01 µM (PC-3 [3]): 99%
- growth at 0.1 µM (HCT-15): 103%
- growth at 0.1 µM (UACC-62): 97%
- growth at 0.1 µM (OVCAR-8): 100%
- growth at 0.1 µM (UO-31): 89%
- growth at 0.1 µM (PC-3 [4]): 94%
- growth at 0.1 µM (MDA-MB-468): 96%
- growth at 1 µM (K562): 76%
- growth at 1 µM (HOP-62): 87%
- growth at 1 µM (NCI-H226 [5]): 86%
- growth at 1 µM (SW-620): 88%
- growth at 1 µM (SF-539): 86%
- growth at 1 µM (786-0 [6]): 98%
- growth at 1 µM (ACHN): 87%
- growth at 1 µM (RXF 393): 83%
- growth at 1 µM (TK-10 [7]): 87%
- growth at 1 µM (MCF7 [8]): 73%
- growth at 1 µM (MDA-MB-231): 79%
- growth at 100 µM (HOP-92): -21%
- growth at 100 µM (NCI-H226 [9]): -16%
- growth at 100 µM (NCI-H460): -36%
- growth at 100 µM (TK-10 [10]): -18%
- growth at 100 µM (MCF7 [11]): -15%
- GI50 (CCRF-CEM [12]): 2.86 µM
- TGI (CCRF-CEM [12]): > 100 µM
- GI50 (KM12): 2.89 µM
- TGI (KM12): 13.4 µM
- GI50 (SNB-75): 0.291 µM
- TGI (SNB-75): 7.97 µM
- CC50 (SNB-75): 94.6 µM
- GI50 (MDA-MB-435): 0.648 µM
- TGI (MDA-MB-435): 19.3 µM
- GI50 (SK-MEL-28): 3.05 µM
- TGI (SK-MEL-28): 17.7 µM
- GI50 (NCI/ADR-RES): 5.19 µM
- TGI (NCI/ADR-RES): 44 µM
- CC50 (NCI/ADR-RES): > 100 µM
- GI50 (SN12C): 2.31 µM
- TGI (SN12C): 16.2 µM
- CC50 (SN12C): > 100 µM
- GI50 (PC-3 [13]): 3.72 µM
- TGI (PC-3 [13]): 52.9 µM
